TGI data for four compounds are collected here from PubChem BioAssay (NCI).

Molecules are shown by their SMILES.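 In this assay, cells in 96-well plates receive the compound at five concentrations for 48 hours. Endpoints are linearly interpolated between the surrounding concentrations. At the TGI there is no net growth.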

The subject of the first assay is LOX IMVI melanoma. In words: NCI tumour cell line growth inhibition, 48 h.
As for `O=[N+]([O-])c1ccc(-c2csc3nc(-c4ccccc4)nn23)cc1`, the TGI is greater than 100 µM.
The same measure, in the same setting: the result for `COc1cccc(N=Cc2cc3cc(Br)ccc3nc2Cl)c1` reads greater than 50 µM; that for `O=C(/C=C(\O)c1ccccc1)C(=O)NNc1ccc([N+](=O)[O-])cc1[N+](=O)[O-]`, 64.3 µM.

The test system of a further assay is SF-268 CNS. Briefly: NCI tumour cell line growth inhibition, 48 h.
Compound `O=[N+]([O-])c1ccc(-c2csc3nc(-c4ccccc4)nn23)cc1` registered a TGI greater than 100 µM.
The same measure, in the same setting: in the case of `NC1CC(=O)c2sc(I)cc21` (stereo not drawn) it was greater than 100 µM; in that of `COc1cccc(N=Cc2cc3cc(Br)ccc3nc2Cl)c1`, greater than 50 µM; in that of `O=C(/C=C(\O)c1ccccc1)C(=O)NNc1ccc([N+](=O)[O-])cc1[N+](=O)[O-]`, 37.8 µM.

The subject of the next assay is OVCAR-3 ovarian. Briefly: NCI tumour cell line growth inhibition, 48 h.
For `O=[N+]([O-])c1ccc(-c2csc3nc(-c4ccccc4)nn23)cc1`, the TGI is greater than 100 µM.
Turning to `NC1CC(=O)c2sc(I)cc21` (stereo not drawn), the TGI is greater than 100 µM.
The same measure, in the same setting: in the case of `COc1cccc(N=Cc2cc3cc(Br)ccc3nc2Cl)c1` it was greater than 50 µM.

The test system of the next assay is 786-0 renal. In words: NCI tumour cell line growth inhibition, 48 h.
Compound `O=[N+]([O-])c1ccc(-c2csc3nc(-c4ccccc4)nn23)cc1` came in with a TGI greater than 100 µM.
The same measure, in the same setting: the result for `NC1CC(=O)c2sc(I)cc21` (stereo not drawn) reads greater than 100 µM.
On the same count and under the same terms, in the case of `COc1cccc(N=Cc2cc3cc(Br)ccc3nc2Cl)c1` it was 11.3 µM; in that of `O=C(/C=C(\O)c1ccccc1)C(=O)NNc1ccc([N+](=O)[O-])cc1[N+](=O)[O-]`, 25.9 µM.

The subject of a further assay is A549 NSCLC. In words: NCI tumour cell line growth inhibition, 48 h.
On to `O=[N+]([O-])c1ccc(-c2csc3nc(-c4ccccc4)nn23)cc1`, for which the TGI was greater than 100 µM.
In the case of `NC1CC(=O)c2sc(I)cc21` (stereo not drawn), the TGI is greater than 100 µM.
Still for that read-out and setting: in the case of `COc1cccc(N=Cc2cc3cc(Br)ccc3nc2Cl)c1` it was greater than 50 µM.
`O=C(/C=C(\O)c1ccccc1)C(=O)NNc1ccc([N+](=O)[O-])cc1[N+](=O)[O-]` registered a TGI of 34.1 µM.

A further assay has as its system MALME-3M melanoma. Briefly: NCI tumour cell line growth inhibition, 48 h.
Consider `O=[N+]([O-])c1ccc(-c2csc3nc(-c4ccccc4)nn23)cc1`, for which the TGI was greater than 100 µM.
Still for that read-out and setting: the result for `NC1CC(=O)c2sc(I)cc21` (stereo not drawn) reads greater than 100 µM; that for `COc1cccc(N=Cc2cc3cc(Br)ccc3nc2Cl)c1`, greater than 50 µM.
The same measure, in the same setting: the result for `O=C(/C=C(\O)c1ccccc1)C(=O)NNc1ccc([N+](=O)[O-])cc1[N+](=O)[O-]` reads 82.4 µM.

A further assay deals with UACC-62 melanoma. Briefly: NCI tumour cell line growth inhibition, 48 h.
In turn, `O=[N+]([O-])c1ccc(-c2csc3nc(-c4ccccc4)nn23)cc1` gave a TGI greater than 100 µM.
Still for that read-out and setting: in the case of `NC1CC(=O)c2sc(I)cc21` (stereo not drawn) it was greater than 100 µM.
Take `O=C(/C=C(\O)c1ccccc1)C(=O)NNc1ccc([N+](=O)[O-])cc1[N+](=O)[O-]`: the TGI amounted to 31.1 µM.

A further assay deals with SNB-75 CNS. In words: NCI tumour cell line growth inhibition, 48 h.
`O=[N+]([O-])c1ccc(-c2csc3nc(-c4ccccc4)nn23)cc1` registered a TGI greater than 100 µM.
Regarding `NC1CC(=O)c2sc(I)cc21` (stereo not drawn), the TGI is greater than 100 µM.
Compound `COc1cccc(N=Cc2cc3cc(Br)ccc3nc2Cl)c1` had a TGI greater than 50 µM.
Still for that read-out and setting: the result for `O=C(/C=C(\O)c1ccccc1)C(=O)NNc1ccc([N+](=O)[O-])cc1[N+](=O)[O-]` reads 30.9 µM.

A further assay relates to SF-539 CNS. In words: NCI tumour cell line growth inhibition, 48 h.
`NC1CC(=O)c2sc(I)cc21` (stereo not drawn) showed a TGI greater than 100 µM.
For `COc1cccc(N=Cc2cc3cc(Br)ccc3nc2Cl)c1`, the TGI is greater than 50 µM.
On the same count and under the same terms, the result for `O=C(/C=C(\O)c1ccccc1)C(=O)NNc1ccc([N+](=O)[O-])cc1[N+](=O)[O-]` reads 33.5 µM.

A further assay has as its system MCF7 breast. Briefly: NCI tumour cell line growth inhibition, 48 h.
In the case of `O=[N+]([O-])c1ccc(-c2csc3nc(-c4ccccc4)nn23)cc1`, the TGI was greater than 100 µM.
On the same count and under the same terms, in the case of `NC1CC(=O)c2sc(I)cc21` (stereo not drawn) it was greater than 100 µM.
Same read-out and setting: in the case of `O=C(/C=C(\O)c1ccccc1)C(=O)NNc1ccc([N+](=O)[O-])cc1[N+](=O)[O-]` it was greater than 100 µM.

The subject of another assay is MDA-MB-231 breast. Briefly: NCI tumour cell line growth inhibition, 48 h.
Take `O=[N+]([O-])c1ccc(-c2csc3nc(-c4ccccc4)nn23)cc1`: the TGI was greater than 100 µM.
On the same count and under the same terms, the result for `NC1CC(=O)c2sc(I)cc21` (stereo not drawn) reads greater than 100 µM.
The compound `O=C(/C=C(\O)c1ccccc1)C(=O)NNc1ccc([N+](=O)[O-])cc1[N+](=O)[O-]` showed a TGI of 67.6 µM.

The test system of the next assay is SF-295 CNS. In words: NCI tumour cell line growth inhibition, 48 h.
`O=[N+]([O-])c1ccc(-c2csc3nc(-c4ccccc4)nn23)cc1`: the TGI is greater than 100 µM.
The same measure, in the same setting: the result for `COc1cccc(N=Cc2cc3cc(Br)ccc3nc2Cl)c1` reads greater than 50 µM.
Same read-out and setting: the result for `O=C(/C=C(\O)c1ccccc1)C(=O)NNc1ccc([N+](=O)[O-])cc1[N+](=O)[O-]` reads 29.8 µM.

A further assay deals with K-562 leukemia. In words: NCI tumour cell line growth inhibition, 48 h.
Turning to `O=[N+]([O-])c1ccc(-c2csc3nc(-c4ccccc4)nn23)cc1`, the TGI was greater than 100 µM.
The same measure, in the same setting: the result for `NC1CC(=O)c2sc(I)cc21` (stereo not drawn) reads greater than 100 µM; that for `COc1cccc(N=Cc2cc3cc(Br)ccc3nc2Cl)c1`, greater than 50 µM.
`O=C(/C=C(\O)c1ccccc1)C(=O)NNc1ccc([N+](=O)[O-])cc1[N+](=O)[O-]`: the TGI worked out at 95.1 µM.

The next assay relates to SK-MEL-2 melanoma. In words: NCI tumour cell line growth inhibition, 48 h.
Take `O=[N+]([O-])c1ccc(-c2csc3nc(-c4ccccc4)nn23)cc1`: the TGI was greater than 100 µM.
For the compound `NC1CC(=O)c2sc(I)cc21` (stereo not drawn), the TGI was greater than 100 µM.
`COc1cccc(N=Cc2cc3cc(Br)ccc3nc2Cl)c1` came in with a TGI greater than 50 µM.
Same read-out and setting: in the case of `O=C(/C=C(\O)c1ccccc1)C(=O)NNc1ccc([N+](=O)[O-])cc1[N+](=O)[O-]` it was greater than 100 µM.

Another assay concerns UACC-257 melanoma. Briefly: NCI tumour cell line growth inhibition, 48 h.
On to `O=[N+]([O-])c1ccc(-c2csc3nc(-c4ccccc4)nn23)cc1`, for which the TGI is greater than 100 µM.
Still for that read-out and setting: in the case of `NC1CC(=O)c2sc(I)cc21` (stereo not drawn) it was greater than 100 µM.
`COc1cccc(N=Cc2cc3cc(Br)ccc3nc2Cl)c1` registered a TGI greater than 50 µM.
`O=C(/C=C(\O)c1ccccc1)C(=O)NNc1ccc([N+](=O)[O-])cc1[N+](=O)[O-]`: the TGI is 99.8 µM.
